Consider three compounds from patent publication US20180071248A1, “COMPOSITION FOR IMPROVING CIRCADIAN RHYTHM” (SUNTORY HOLDINGS LIMITED, priority 2015, published 2018).

The test system of one assay is circadian rhythm. The following applies: disclosed in NPLs 4 and 5; cited from earlier work.
The test system of assay [1] is Per 2 gene expression rhythm. The experiment in a line: Per 2 gene expression rhythm in Per2::LUC knock-in mouse-derived embryonic fibroblast line (luciferase chemiluminescence, LumiCycle). The format is cell-based. The following applies: Per2::LUC mouse embryonic fibroblasts; each substance at 10 μM; FIG. 4. The procedure: The cell line used was Per2::LUC knock-in mouse-derived embryonic fibroblast line. Per2::LUC knock-in mouse is a mouse in which the luciferase gene serving as a reporter is introduced downstream of the promoter region of the clock gene Per 2. Therefore, a Per 2::LUC knock-in mouse-derived embryonic fibroblast line expresses the luciferase gene along with periodic expression of the clock gene. When Per 2::LUC knock-in mouse-derived embryonic fibroblasts are cultured in a culture medium containing luciferin, a luciferase substrate, the cells produce chemiluminescence periodically; thus, by monitoring the chemiluminescence, the expression rhythm of the clock gene Per 2 can be evaluated.
At first, about 5×10^5 cells of the Per2::LUC knock-in mouse-derived embryonic fibroblast line were seeded onto 35 mm culture dishes, and then treated with 200 nM dexamethasone for 2 hours to thereby reset (tune) the biorhythm of the cells. […] While the cell culture was continued, the chemiluminescence of the reporter gene was measured real-time with a luminometer (LumiCycle; produced by Actimetrics) for one minute at a frequency of every 10 minutes, and the measurement was continued for 5 days. Amplitude and period length were calculated from the obtained waveform to evaluate the effect of the test substance, a 1:1 mixture of sesamin/episesamin. […]

As to `Cn1c(=O)c2c(ncn2C)n(C)c1=O` [caffeine], in the assay with circadian rhythm, the circadian rhythm amplitude result is “amplify circadian rhythm amplitude” and the circadian rhythm period entry was “lengthen circadian rhythm period”. Turning to `c1cc2c(cc1[C@H]1OC[C@H]3[C@@H]1CO[C@@H]3c1ccc3c(c1)OCO3)OCO2` [sesamin], in assay [1], the “amplitude of Per 2 gene expression” value was “capable of increasing the amplitude”. With `Oc1cc2c(cc1[C@H]1OC[C@H]3[C@@H]1CO[C@@H]3c1ccc3c(c1)OCO3)OCO2` [sesaminol], the “amplitude of Per 2 gene expression” value in assay [1] is on record as “capable of increasing the amplitude”.
